The test system of assay [1] is rabbit serum obtained by immunizing a rabbit with the SARS-CoV strain Frankfurt 1. It counts as binding. The arrangement: Binding of a rabbit serum to linear peptides / Binding of a rabbit serum to looped peptides / Rabbit serum linear peptides / Rabbit serum looped peptides / Binding of a rabbit serum to linear peptides of protein N of SARS-CoV Urbani (Rabbit serum linear peptides) / Binding of a rabbit serum to looped/cyclic peptides of protein N of SARS-CoV Urbani (Rabbit serum looped peptides): unit not given here.

The test system of assay [2] is antibodies in sera from SARS patients (sera 1a, 1b, 2, 6, 37, 62, London, SARS-yellow, SARS-green). It counts as binding, human. More on the design: Binding of serum 6 to linear peptides of protein X1 of SARS-CoV Urbani / Binding of serum 37 to linear peptides of protein X1 of SARS-CoV Urbani / Binding of serum 6 to looped/cyclic peptide (PEPSCAN-ELISA) / Binding of serum 37 to looped/cyclic peptide (PEPSCAN-ELISA) / Binding of serum 37 to looped/cyclic peptides of protein X1 of SARS-CoV Urbani / Binding of serum 6 to linear peptides of protein X2 / Binding of serum 37 to linear peptides of protein X2 / Binding of serum 37 to looped/cyclic peptides of protein X2 of SARS-CoV Urbani / Binding of serum 6 to linear peptides of protein M of SARS-CoV Urbani / Binding of serum 37 to linear peptides of protein M of SARS-CoV Urbani / Binding of serum 6 to looped/cyclic peptides of protein M of SARS-CoV Urbani / Binding of serum 37 to looped/cyclic peptides of protein M of SARS-CoV Urbani / Binding of serum 6 to linear peptides of protein X3 of SARS-CoV Urbani / Binding of serum 37 to linear peptides of protein X3 of SARS-CoV Urbani / Binding of serum 37 to looped/cyclic peptides of protein X3 of SARS-CoV Urbani / Binding of serum 6 to linear peptides of protein X4 of SARS-CoV Urbani / Binding of serum 37 to linear peptides of protein X4 of SARS-CoV Urbani / Binding of serum 37 to looped/cyclic peptides of protein X4 of SARS-CoV Urbani / Binding of serum 6 to linear peptides of protein X5 of SARS-CoV Urbani / Binding of serum 37 to linear peptides of protein X5 of SARS-CoV Urbani / Binding of serum 37 to looped/cyclic peptides of protein X5 of SARS-CoV Urbani / Binding of serum 6 to linear peptides of protein N of SARS-CoV Urbani / Binding of serum 37 to linear peptides of protein N of SARS-CoV Urbani / Binding of serum 6 to linear peptide (PEPSCAN-ELISA) / Binding of serum 1a to looped/cyclic peptides of protein N of SARS-CoV Urbani / Binding of serum 1b to looped/cyclic peptides of protein N of SARS-CoV Urbani / Binding of serum 2 to looped/cyclic peptides of protein N of SARS-CoV Urbani / Binding of serum 6 to looped/cyclic peptides of protein N of SARS-CoV Urbani / Binding of serum 37 to looped/cyclic peptides of protein N of SARS-CoV Urbani / Binding of serum 62 to looped/cyclic peptides of protein N of SARS-CoV Urbani / Binding of serum London to looped/cyclic peptides of protein N of SARS-CoV Urbani / Binding of serum SARS-green to looped/cyclic peptides of protein N of SARS-CoV Urbani: unit not given here.

Assay [3] relates to control sera (pooled serum of ten healthy LUMC hospital workers; commercial negative donor pooled serum from the Dutch bloodbank). It counts as binding, human. The arrangement: Binding of Control serum LUMC to linear peptides / Binding of Control serum Blood-bank to linear peptides / Binding of Control serum LUMC to looped peptides / Binding of Control Serum Blood-Bank to Looped peptides / Binding of Control serum LUMC to linear peptides of the protein M of SARS-CoV Urbani / Binding of Control serum Blood-bank to linear peptides of the protein M of SARS-CoV Urbani / Binding of Control serum LUMC to looped peptides of the protein M of SARS-CoV Urbani / Binding of Control Serum Blood-Bank to Looped peptides of the protein M of SARS-CoV Urbani: unit not given here.

With QFICNLLLLFVTIYS, in assay [1], the “Binding of a rabbit serum to linear peptides” value stood at 0.3 and the “Binding of a rabbit serum to looped peptides” value worked out at 0.5. Further, in assay [2], the “Binding of serum 1a to linear peptides of protein X1 of SARS-CoV Urbani” value came to 0.6, the “Binding of serum 1a to looped/cyclic peptide (PEPSCAN-ELISA)” value came to 0.5, the “Binding of serum 1b to linear peptides of protein X1 of SARS-CoV Urbani” value worked out at 0.5 and the “Binding of serum 1b to looped/cyclic peptide (PEPSCAN-ELISA)” value is on record as 0.4. In assay [2], the “Binding of serum 2 to linear peptides of protein X1 of SARS-CoV Urbani” value was 0.6, the “Binding of serum 2 to looped/cyclic peptide (PEPSCAN-ELISA)” value amounted to 0.6, the “Binding of serum 6 to linear peptides of protein X1 of SARS-CoV Urbani” value is listed as 0.4 and the “Binding of serum 6 to looped/cyclic peptide (PEPSCAN-ELISA)” value is reported as 0.3. For the same sequence, in assay [2], the “Binding of serum 37 to linear peptides of protein X1 of SARS-CoV Urbani” value was determined as 0.5, the “Binding of serum 37 to looped/cyclic peptide (PEPSCAN-ELISA)” value amounted to 0.5, the “Binding of serum 62 to linear peptides of protein X1 of SARS-CoV Urbani” value came to 0.6 and the “Binding of serum 62 to looped/cyclic peptide (PEPSCAN-ELISA)” value amounted to 0.5. For the same sequence, in assay [2], the “Binding of serum London to linear peptides of protein X1 of SARS-CoV Urbani” value stood at 0.2, the “Binding of serum London to looped/cyclic peptide (PEPSCAN-ELISA)” value is 0.2, the “Binding of serum SARS-green to linear peptides of protein X1 of SARS-CoV Urbani” value was 0.0 and the “Binding of serum SARS-green to looped/cyclic peptide (PEPSCAN-ELISA)” value is 0.2. Further, in assay [2], the “Binding of serum SARS-yellow to linear peptides of protein X1 of SARS-CoV Urbani” value was determined as 0.4 and the “Binding of serum SARS-yellow to looped/cyclic peptide (PEPSCAN-ELISA)” value stood at 0.5. Further, in assay [3], the “Binding of Control Serum Blood-Bank to Looped peptides” value was determined as 0.5, the “Binding of Control serum Blood-bank to linear peptides” value is 0.6, the “Binding of Control serum LUMC to linear peptides” value is 0.6 and the “Binding of Control serum LUMC to looped peptides” value was 0.5.

QFLYLYALIYFLQCI: in assay [1], the “Binding of a rabbit serum to linear peptides” value worked out at 0.1 and the “Binding of a rabbit serum to looped peptides” value is reported as 0.4. Moreover, in assay [2], the “Binding of serum 1a to linear peptides of protein X1 of SARS-CoV Urbani” value was 0.7, the “Binding of serum 1a to looped/cyclic peptide (PEPSCAN-ELISA)” value stood at 0.5, the “Binding of serum 1b to linear peptides of protein X1 of SARS-CoV Urbani” value is 0.5 and the “Binding of serum 1b to looped/cyclic peptide (PEPSCAN-ELISA)” value stood at 0.3. Also, in assay [2], the “Binding of serum 2 to linear peptides of protein X1 of SARS-CoV Urbani” value is listed as 0.5, the “Binding of serum 2 to looped/cyclic peptide (PEPSCAN-ELISA)” value was 0.3, the “Binding of serum 6 to linear peptides of protein X1 of SARS-CoV Urbani” value is recorded as 0.4 and the “Binding of serum 6 to looped/cyclic peptide (PEPSCAN-ELISA)” value stood at 0.2. Further, in assay [2], the “Binding of serum 37 to linear peptides of protein X1 of SARS-CoV Urbani” value amounted to 0.6, the “Binding of serum 37 to looped/cyclic peptide (PEPSCAN-ELISA)” value came to 0.5, the “Binding of serum 62 to linear peptides of protein X1 of SARS-CoV Urbani” value is on record as 0.5 and the “Binding of serum 62 to looped/cyclic peptide (PEPSCAN-ELISA)” value was found to be 0.5. Moreover, in assay [2], the “Binding of serum London to linear peptides of protein X1 of SARS-CoV Urbani” value turned out to be 0.2, the “Binding of serum London to looped/cyclic peptide (PEPSCAN-ELISA)” value is reported as 0.2, the “Binding of serum SARS-green to linear peptides of protein X1 of SARS-CoV Urbani” value was 0.2 and the “Binding of serum SARS-green to looped/cyclic peptide (PEPSCAN-ELISA)” value is given as 0.2. In addition, in assay [2], the “Binding of serum SARS-yellow to linear peptides of protein X1 of SARS-CoV Urbani” value was 0.5 and the “Binding of serum SARS-yellow to looped/cyclic peptide (PEPSCAN-ELISA)” value is 0.3. Moreover, in assay [3], the “Binding of Control Serum Blood-Bank to Looped peptides” value was found to be 0.5, the “Binding of Control serum Blood-bank to linear peptides” value is given as 0.5, the “Binding of Control serum LUMC to linear peptides” value was 0.4 and the “Binding of Control serum LUMC to looped peptides” value came to 0.6.

As to QIHTIDGSSGVANPA, in assay [1], the “Binding of a rabbit serum to linear peptides” value came to 0.1 and the “Binding of a rabbit serum to looped peptides” value came out at 0.3. Also, in assay [2], the “Binding of serum 1a to linear peptides of protein X1 of SARS-CoV Urbani” value turned out to be 0.6, the “Binding of serum 1a to looped/cyclic peptides of protein X1 of SARS-CoV Urbani” value was found to be 0.4, the “Binding of serum 1b to linear peptides of protein X1 of SARS-CoV Urbani” value was found to be 0.5 and the “Binding of serum 1b to looped/cyclic peptides of protein X1 of SARS-CoV Urbani” value turned out to be 0.3. In assay [2], the “Binding of serum 2 to linear peptides of protein X1 of SARS-CoV Urbani” value was found to be 0.6, the “Binding of serum 2 to looped/cyclic peptides of protein X1 of SARS-CoV Urbani” value stood at 0.4, the “Binding of serum 6 to linear peptides of protein X1 of SARS-CoV Urbani” value is on record as 0.5 and the “Binding of serum 6 to looped/cyclic peptides of protein X1 of SARS-CoV Urbani” value is listed as 0.2. Moreover, in assay [2], the “Binding of serum 37 to linear peptides of protein X1 of SARS-CoV Urbani” value stood at 0.7, the “Binding of serum 37 to looped/cyclic peptides of protein X1 of SARS-CoV Urbani” value came out at 0.4, the “Binding of serum 62 to linear peptides of protein X1 of SARS-CoV Urbani” value is listed as 0.6 and the “Binding of serum 62 to looped/cyclic peptides of protein X1 of SARS-CoV Urbani” value was 0.3. Moreover, in assay [2], the “Binding of serum London to linear peptides of protein X1 of SARS-CoV Urbani” value is 0.3, the “Binding of serum London to looped/cyclic peptides of protein X1 of SARS-CoV Urbani” value is 0.2, the “Binding of serum SARS-green to linear peptides of protein X1 of SARS-CoV Urbani” value was 0.4 and the “Binding of serum SARS-green to looped/cyclic peptides of protein X1 of SARS-CoV Urbani” value amounted to 0.2. For the same sequence, in assay [2], the “Binding of serum SARS-yellow to linear peptides of protein X1 of SARS-CoV Urbani” value is reported as 0.3 and the “Binding of serum SARS-yellow to looped/cyclic peptides of protein X1 of SARS-CoV Urbani” value is 0.1. In addition, in assay [3], the “Binding of Control Serum Blood-Bank to Looped peptides” value was 0.2, the “Binding of Control serum Blood-bank to linear peptides” value amounted to 0.6, the “Binding of Control serum LUMC to linear peptides” value came to 0.6 and the “Binding of Control serum LUMC to looped peptides” value turned out to be 0.4.

In the case of QIQLSLLKVTAFQHQ, in assay [1], the “Binding of a rabbit serum to linear peptides” value is 0.6 and the “Binding of a rabbit serum to looped peptides” value came to 0.5. In assay [2], the “Binding of serum 1a to linear peptides of protein X2” value worked out at 0.5, the “Binding of serum 1a to looped/cyclic peptides of protein X2 of SARS-CoV Urbani” value is given as 0.6, the “Binding of serum 1b to linear peptides of protein X2” value is recorded as 0.4 and the “Binding of serum 1b to looped/cyclic peptides of protein X2 of SARS-CoV Urbani” value is 0.5. For the same sequence, in assay [2], the “Binding of serum 2 to linear peptides of protein X2” value stood at 0.4, the “Binding of serum 2 to looped/cyclic peptides of protein X2 of SARS-CoV Urbani” value is 0.4, the “Binding of serum 6 to linear peptides of protein X2” value is 0.4 and the “Binding of serum 6 to looped/cyclic peptides of protein X2 of SARS-CoV Urbani” value is recorded as 0.6. Besides, in assay [2], the “Binding of serum 37 to linear peptides of protein X2” value was determined as 0.6, the “Binding of serum 37 to looped/cyclic peptides of protein X2 of SARS-CoV Urbani” value came to 0.4, the “Binding of serum 62 to linear peptides of protein X2” value is listed as 0.3 and the “Binding of serum 62 to looped/cyclic peptides of protein X2 of SARS-CoV Urbani” value is 0.6. Besides, in assay [2], the “Binding of serum London to linear peptides of protein X2” value is reported as 0.3, the “Binding of serum London to looped/cyclic peptides of protein X2 of SARS-CoV Urbani” value turned out to be 0.7, the “Binding of serum SARS-green to linear peptides of protein X2” value was found to be 0.2 and the “Binding of serum SARS-green to looped/cyclic peptides of protein X2 of SARS-CoV Urbani” value is listed as 0.4. In assay [2], the “Binding of serum SARS-yellow to linear peptides of protein X2” value is on record as 0.4 and the “Binding of serum SARS-yellow to looped/cyclic peptides of protein X2 of SARS-CoV Urbani” value is listed as 0.6. Besides, in assay [3], the “Binding of Control Serum Blood-Bank to Looped peptides” value came to 0.6, the “Binding of Control serum Blood-bank to linear peptides” value amounted to 0.4, the “Binding of Control serum LUMC to linear peptides” value was determined as 0.7 and the “Binding of Control serum LUMC to looped peptides” value worked out at 0.6.

(Values after patent US20070128217A1 (priority 2003, published 2007).)
